Data on 17 compounds can be found in PubChem BioAssay AID256 (DTP/NCI, 2004).

Molecules are shown by their SMILES. Where “and” joins values, the source holds several entries; their conditions need not be identical. Equal values may be shown once. Toxic doses and inconclusive results are not listed.

The test has as its system CD2F1 mice, L1210 leukemia ip, survival T/C. Nature of the test: NCI In Vivo Anticancer Drug Screen. Data for tumor model L1210 Leukemia (intraperitoneal) in CD2F1 (CDF1) mice. The note with it: higher = longer survival. In a few lines: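 Compound-dosed mice with transplantable tumor versus matched vehicle controls; endpoint ratio T/C reported.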
Where [1] appears, read: endpoint: mean survival time, dose: 100.0 mg/kg/injection, schedule: Q04DX002 (ip), vehicle: saline with Tween-80.
Setting [2] is: endpoint: mean survival time, dose: 400.0 mg/kg/injection, schedule: Q04DX002 (ip), vehicle: saline with Tween-80.
Setting [3] is: endpoint: mean survival time, dose: 100.0 mg/kg/injection, schedule: Q01DX009 (ip), vehicle: saline with Tween-80.
Setting [4] is: endpoint: mean survival time, dose: 200.0 mg/kg/injection, schedule: Q01DX009 (ip), vehicle: saline with Tween-80.
Setting [5] is: endpoint: mean survival time, dose: 400.0 mg/kg/injection, schedule: Q01DX009 (ip), vehicle: saline with Tween-80.
[6] abbreviates: endpoint: mean survival time, dose: 50.0 mg/kg/injection, schedule: Q01DX009 (ip), vehicle: Klucel (hydroxypropylcellulose) (HPC).
Where [7] appears, read: endpoint: mean survival time, dose: 100.0 mg/kg/injection, schedule: Q01DX009 (ip), vehicle: Klucel (hydroxypropylcellulose) (HPC).
[8] abbreviates: endpoint: mean survival time, dose: 200.0 mg/kg/injection, schedule: Q01DX009 (ip), vehicle: Klucel (hydroxypropylcellulose) (HPC).
[9] abbreviates: endpoint: mean survival time, dose: 100.0 mg/kg/injection, schedule: Q04DX003 (ip), vehicle: saline with Tween-80.
The mark [10] stands for this setting: endpoint: mean survival time, dose: 200.0 mg/kg/injection, schedule: Q04DX003 (ip), vehicle: saline with Tween-80.
[11] abbreviates: endpoint: mean survival time, dose: 400.0 mg/kg/injection, schedule: Q04DX003 (ip), vehicle: saline with Tween-80.
Setting [12] is: endpoint: mean survival time, dose: 100.0 mg/kg/injection, schedule: Q04DX003 (ip), vehicle: Klucel (hydroxypropylcellulose) (HPC).
[13] abbreviates: endpoint: mean survival time, dose: 200.0 mg/kg/injection, schedule: Q04DX003 (ip), vehicle: Klucel (hydroxypropylcellulose) (HPC).
Where [14] appears, read: endpoint: mean survival time, dose: 400.0 mg/kg/injection, schedule: Q04DX003 (ip), vehicle: Klucel (hydroxypropylcellulose) (HPC).

Consider `NC1CCCCC1N.O=S(=O)([O-])CCCN1CCN(CCO)CC1.O=S(=O)([O-])CCCN1CCN(CCO)CC1.[Pt+4]`, for which the T/C was 121 % of control (endpoint: median survival time, dose: 0.78 mg/kg/injection, schedule: Q04DX003 (ip), vehicle: saline); 120 % of control (endpoint: median survival time, dose: 1.56 mg/kg/injection, schedule: Q04DX003 (ip), vehicle: saline); 168 % of control and 175 % of control (endpoint: median survival time, dose: 6.25 mg/kg/injection, schedule: Q04DX003 (ip), vehicle: saline); 212 % of control and 487 % of control (endpoint: median survival time, dose: 12.5 mg/kg/injection, schedule: Q04DX003 (ip), vehicle: saline); 256 % of control and 487 % of control (endpoint: median survival time, dose: 25.0 mg/kg/injection, schedule: Q04DX003 (ip), vehicle: saline); 151 % of control and 170 % of control (endpoint: median survival time, dose: 50.0 mg/kg/injection, schedule: Q04DX003 (ip), vehicle: saline).

As to `COc1cc(NC(=O)Nc2cccc(Cl)c2)c(OC)cc1Cl`, the T/C was 94 % of control under setting [1] and 91 % of control under setting [2].

Consider `CC(=O)C(C)C(C)=O`, for which the T/C was 105 % of control under setting [3], 107 % of control under setting [4] and 102 % of control under setting [5].

With `O=C1OC2C(Cl)CC(Cl)CC2C=C1c1cccc([N+](=O)[O-])c1` (stereo not given), the T/C was 90 % of control under setting [3]; 90 % of control under setting [1]; 94 % of control under setting [4]; 90 % of control (endpoint: mean survival time, dose: 200.0 mg/kg/injection, schedule: Q04DX002 (ip), vehicle: saline with Tween-80); 105 % of control under setting [5]; 94 % of control under setting [2].

Take `CCCCN(CCCC)C(Cl)=Nc1ccccc1`: the T/C was 95 % of control and 105 % of control (endpoint: mean survival time, dose: 6.25 mg/kg/injection, schedule: Q01DX009 (ip), vehicle: Klucel (hydroxypropylcellulose) (HPC)); 92 % of control and 104 % of control (endpoint: mean survival time, dose: 12.5 mg/kg/injection, schedule: Q01DX009 (ip), vehicle: Klucel (hydroxypropylcellulose) (HPC)); 94 % of control and 95 % of control (endpoint: mean survival time, dose: 25.0 mg/kg/injection, schedule: Q01DX009 (ip), vehicle: Klucel (hydroxypropylcellulose) (HPC)); 94 % of control and 95 % of control under setting [6]; 93 % of control under setting [7]; 90 % of control under setting [8].

On to `O=C(NNC(=O)c1ccncc1)NS(=O)(=O)c1ccc(Cl)cc1`, for which the T/C was 101 % of control under setting [6], 90 % of control under setting [7] and 97 % of control under setting [8].

In the case of `O=C(/C(=N\Nc1ccc([N+](=O)[O-])cc1)c1ccccc1)c1ccccc1`, the T/C runs as follows: (endpoint: mean survival time, dose: 12.5 mg/kg/injection, schedule: Q01DX009 (ip), vehicle: saline with Tween-80) 96 % of control; (endpoint: mean survival time, dose: 25.0 mg/kg/injection, schedule: Q01DX009 (ip), vehicle: saline with Tween-80) 88 % of control; (endpoint: mean survival time, dose: 50.0 mg/kg/injection, schedule: Q01DX009 (ip), vehicle: saline with Tween-80) 88 % of control; under setting [9], 97 % of control; under setting [10], 97 % of control; under setting [11], 101 % of control.

On to `O=c1cc(O)c(Cl)nn1C1OC(CO)C(O)C1O` (stereo not given), for which the T/C (endpoint: mean survival time, dose: 12.5 mg/kg/injection, schedule: Q01DX009 (ip), vehicle: water) is 103 % of control; the T/C (endpoint: mean survival time, dose: 25.0 mg/kg/injection, schedule: Q01DX009 (ip), vehicle: water) is 97 % of control; the T/C (endpoint: mean survival time, dose: 50.0 mg/kg/injection, schedule: Q01DX009 (ip), vehicle: water) is 100 % of control; the T/C (endpoint: mean survival time, dose: 100.0 mg/kg/injection, schedule: Q01DX009 (ip), vehicle: water) was 100 % of control; the T/C (endpoint: mean survival time, dose: 200.0 mg/kg/injection, schedule: Q01DX009 (ip), vehicle: water) was 95 % of control; the T/C (endpoint: mean survival time, dose: 400.0 mg/kg/injection, schedule: Q01DX009 (ip), vehicle: water) was 91 % of control.

Turning to `CCc1ccc(NS(=O)(=O)c2ccccc2)cc1`, the T/C is, setting by setting: under setting [3], 90 % of control; under setting [4], 106 % of control; under setting [5], 95 % of control.

On to `O=C1C=CC(=O)N1c1ccc(Cl)cc1Cl`, for which the T/C was 103 % of control (endpoint: mean survival time, dose: 12.5 mg/kg/injection, schedule: Q04DX003 (ip), vehicle: saline with Tween-80) and 100 % of control (endpoint: mean survival time, dose: 25.0 mg/kg/injection, schedule: Q04DX003 (ip), vehicle: saline with Tween-80).

Consider `OC(CC1(O)C(F)(F)C(F)(F)C1(F)F)c1ccccc1` (stereo not given), for which the T/C under setting [9] was 96 % of control, the T/C under setting [10] was 92 % of control and the T/C under setting [11] was 90 % of control.

`O=c1cc(NCCCc2ccccc2)[nH]c(=O)[nH]1`: the T/C was 100 % of control (endpoint: mean survival time, dose: 100.0 mg/kg/injection, schedule: Q01DX001 (ip), vehicle: saline with Tween-80); 92 % of control (endpoint: mean survival time, dose: 200.0 mg/kg/injection, schedule: Q01DX001 (ip), vehicle: saline with Tween-80); 93 % of control (endpoint: mean survival time, dose: 400.0 mg/kg/injection, schedule: Q01DX001 (ip), vehicle: saline with Tween-80).

Take `CC(C)(c1ccc(O)cc1)c1ccc(O)cc1`: the T/C reads like this: under setting [3], 102 % of control; under setting [4], 104 % of control; under setting [5], 100 % of control.

Turning to `CC1CCC2CON(C#N)C2C1` (stereo not given), the T/C runs as follows: under setting [12], 109 % of control; under setting [13], 101 % of control; under setting [14], 101 % of control.

With `O=S(=O)(O)CCCBr`, the T/C is, setting by setting: (endpoint: mean survival time, dose: 100.0 mg/kg/injection, schedule: Q01DX009 (ip), vehicle: saline) 93 % of control; (endpoint: mean survival time, dose: 200.0 mg/kg/injection, schedule: Q01DX009 (ip), vehicle: saline) 105 % of control; (endpoint: mean survival time, dose: 400.0 mg/kg/injection, schedule: Q01DX009 (ip), vehicle: saline) 100 % of control.

For the compound `COc1ccc2c3c(ccc2c1)C1=NCCC1(C)CC3` (stereo not given), the T/C is 101 % of control (endpoint: mean survival time, dose: 100.0 mg/kg/injection, schedule: Q01DX001 (sc), vehicle: Klucel (hydroxypropylcellulose) (HPC)); 105 % of control (endpoint: mean survival time, dose: 100.0 mg/kg/injection, schedule: Q04DX003 (sc), vehicle: steriod suspending solution); 101 % of control (endpoint: mean survival time, dose: 200.0 mg/kg/injection, schedule: Q01DX001 (sc), vehicle: Klucel (hydroxypropylcellulose) (HPC)); 102 % of control (endpoint: mean survival time, dose: 200.0 mg/kg/injection, schedule: Q04DX003 (sc), vehicle: steriod suspending solution); 93 % of control (endpoint: mean survival time, dose: 400.0 mg/kg/injection, schedule: Q01DX001 (sc), vehicle: Klucel (hydroxypropylcellulose) (HPC)); 108 % of control (endpoint: mean survival time, dose: 400.0 mg/kg/injection, schedule: Q04DX003 (sc), vehicle: steriod suspending solution).

For the compound `O=C(N/N=C/c1cccc(Cl)c1)c1ccccc1`, the T/C reads like this: under setting [3], 94 % of control; under setting [12], 96 % of control; under setting [4], 94 % of control; under setting [13], 94 % of control; under setting [5], 96 % of control; under setting [14], 94 % of control.
